Measurements published in US20260295119A1, “TARGET FOR COMBATTING THE FOREIGN BODY RESPONSE TO IMPLANTABLE BIOMATERIALS” (The Regents of the University of Colorado, a body corporate, priority 2023, published 2026).
Values belong to the compound of their own block, whether it stands above or below them. No end group written: not given here.

What was measured:
RAW 264.7 macrophages [1] = experiment: IL-6 production by PAM3CSK4-stimulated RAW 264.7 macrophages; assay type: cell-based, mouse
Method: The ability of free MyD88 inhibitor T6167923 (Br) or T6167923 (SH) in solution to attenuate pro-inflammatory cytokine production by macrophages treated with PAM3CSK4 was assessed (FIG. 12A). When macrophages were treated with PAM3CSK4, IL-6 production increased (p<0.01) by 3-fold. […] Comparing the two inhibitors at 100 μM, T6167923 (Br) had attenuated IL-6 production by 89%, while T6167923 (SH) had attenuated IL-6 product by 58%.
Inhibitor Preparation and Synthesis: 200 μM stock solutions of T6167923 (Br) and T6167923 (SH) were prepared by first dissolving the inhibitors in 100 μL anhydrous DMSO, then adding dropwise to 9.9 mL culture medium and sterile filtering. The stock solution was then serially diluted in additional cell culture medium to make treatment concentrations. The inhibitor-PEG-peptide molecule was synthesized as follows. Bromoacetamido-dPEG12-TFP ester (36 mg) was added to 400 μL anhydrous DMSO and stirred in an amber vial to dissolve. T6167923 (SH) (17.65 mg) was dissolved in 100 μL anhydrous DMSO before being added dropwise to the amber vial. After 20 minutes of stirring, 1.5 mL of 50 mM sodium bicarbonate buffer, pH 8.4 was slowly added to the vial and the reaction was continued for an additional 20 minutes. Triglycine (8.6 mg) was combined with 2 mL of 50 mM sodium bicarbonate buffer, pH 8.4, then added dropwise to the reaction mixture in the amber vial with stirring. The reaction progressed overnight, then the product was purified by dialysis with 100-500 MWCO tubing against DI water. The reaction was monitored by consumption of sulfhydryls and primary amines. The product was sterile filtered and then lyophilized.
Cell Culture: RAW 264.7 cells were cultured in DMEM with 10% FBS and 1% penicillin/streptomycin at 37° C. and 5% CO2. Depending on the experiment, cells were seeded in tissue culture polystyrene (TCPS) well plates ([…]) or on hydrogels at 625,000 cells/cm^2 and allowed to adhere overnight. For transwell experiments, a transwell with a hydrogel was inserted into the well after the cells were allowed to adhere. For the (T6167923 (Br), T6167923 (SH)), and inhibitor-PEG-peptide studies, cells were treated with inhibitor for a specified period of time. To do this, medium was aspirated from the well and replaced with inhibitor-containing DMEM. Control conditions included cells only and cells plus 1% anhydrous DMSO by volume. After a specified period of culture time, PAM3CSK4 was added at 50 ng/ml and the cells were cultured for a prescribed period of time. Medium was collected and flash frozen for ELISA. […]
(§1) Protein Assays: Cell culture medium was thawed on ice. IL-6 in the culture media was quantified using an ELISA. MMP-12 production in culture media was measured per kit instructions. […]

human MMP-12 = biological target: T1, human MMP-12 (Homo sapiens, UniProt P39900); experiment: Cleavage of hydrogel-tethered tryptophan peptides by MMP-12; assay type: biochemical; conditions: role: substrate; 5 nM activated MMP-12, 285 nm; p<0.001
T1 construct: purchased R&D Systems
T1 sequence (P39900 106-470): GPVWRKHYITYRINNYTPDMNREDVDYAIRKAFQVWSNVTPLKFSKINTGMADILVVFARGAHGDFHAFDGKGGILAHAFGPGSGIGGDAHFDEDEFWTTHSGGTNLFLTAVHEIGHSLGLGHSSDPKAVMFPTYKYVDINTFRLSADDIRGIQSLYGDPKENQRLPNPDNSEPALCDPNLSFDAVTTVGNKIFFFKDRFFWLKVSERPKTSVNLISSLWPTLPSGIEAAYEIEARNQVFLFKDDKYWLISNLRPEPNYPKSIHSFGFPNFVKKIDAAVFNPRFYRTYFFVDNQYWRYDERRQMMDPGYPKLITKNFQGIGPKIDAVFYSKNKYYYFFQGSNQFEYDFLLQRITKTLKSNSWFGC
Method: To test the cleavability of the chosen peptides by MMP-12, the sequences were modified with tryptophan residues, tethered to PEG hydrogels at 5 μM concentration, and exposed to 5 nM MMP-12 in buffer. First, the maleimide of acrylate-PEG-maleimide (MW 3,400 g/mol) was reacted with the cysteine residue contained in the peptide sequence to create a PEG-conjugated peptide with tryptophan at one end and an acrylate group at the other. This product was then combined with PEGDA monomer and photoinitiator in PBS and photopolymerized, yielding a gel (FIG. 14C). The release of the tryptophan-containing cleaved portion of the sequence was monitored by measuring buffer absorbance at 285 nm over time (FIG. 14D).
For the release studies, acrylate-PEG-maleimide (6.8 mg) was reacted with peptide (GWGPLGLEEACG [SEQ ID NO. 2] or GWGPLGLARCG [SEQ ID NO. 1], 5 mM) in 500 μL dry DMF for 30 minutes with stirring. PEGDA (100 mg) was then added to the reaction mixture and vortexed to combine. Irgacure 2959 was added as photoinitiator in dry DMF (6 mg/mL). This precursor solution was gelled between glass slides with a 1 mm spacer under UV light for 45 minutes. The resulting 20 wt % hydrogel was soaked in ultrapure water to rinse away DMF followed by additional rinses in TCNB assay buffer (50 mM Tris, 10 mM CaCl2, 150 mM NaCl, 0.05% (w/v) Brij-35, pH 7.5).
Tryptophan Release: Peptide-conjugated hydrogels swollen in TCNB assay buffer were punched to 5 mm diameter and placed in wells of a 96-well clear, flat bottom well plate (n=4 gels for each peptide). Human MMP-12 was reconstituted in 10 mM MES, 0.1 M NaCl, 100 μM CaCl2, 0.1% (w/v) CHAPS, 1 μM ZnSO4, 0.1% (w/v) PEG, pH 6.0 buffer to 0.25 mg/mL. It was then diluted to 50 μg/mL with TCNB assay buffer and activated by adding 100 mM APMA in DMSO to 1 mM final concentration and incubating at 37° C. for 24 hours. […] At each time point, 2 μL supernatant was removed from each well and spectrophotometrically measured on the Nanodrop at 285 nm. […]

RAW 264.7 macrophages [2] = experiment: MMP-12 secretion by RAW 264.7 macrophages (ELISA); assay type: cell-based, mouse; conditions: PAM3CSK4 50 ng/ml, 8 h
Method: RAW 264.7 macrophages were cultured in serum-free (1% ITS) media (FIG. 14A) or serum-containing medium (10% FBS) (FIG. 14(B)) and treated or not with PAM3CSK4 (50 ng/ml), then their secretion of MMP-12 over the 8-hour period was evaluated by ELISA. Macrophages with (p<0.01) and without (p<0.001) PAM3CSK4 stimulation secreted MMP-12 when cultured in the serum-free media, with average levels of 245 and 556 μg/mL, respectively. In serum-containing media, the production of MMP-12 was on average 178 μg MMP-12/mL (p<0.01 relative to blank) in unstimulated cells. […] Unstimulated cells in the same media secreted MMP-12. MMP-12 production by the cells was higher in ITS media than in FBS media.
Cell Culture: RAW 264.7 cells were cultured in DMEM with 10% FBS and 1% penicillin/streptomycin at 37° C. and 5% CO2. Depending on the experiment, cells were seeded in tissue culture polystyrene (TCPS) well plates ([…]) or on hydrogels at 625,000 cells/cm^2 and allowed to adhere overnight. For transwell experiments, a transwell with a hydrogel was inserted into the well after the cells were allowed to adhere. […]
as §1

Compound: C[C@H](NC(=O)N1CCN(S(=O)(=O)c2cccc(Br)c2)CC1)c1cccs1 [T6167923 (Br)]
attenuation of IL-6 production (RAW 264.7 macrophages [1]; 100 μM inhibitor, PAM3CSK4 50 ng/ml): 89% | dose dependence of IL-6 attenuation (RAW 264.7 macrophages [1]; PAM3CSK4 50 ng/ml): a dose-dependent response was observed | inhibitor concentrations at which IL-6 was significantly lower than untreated PAM3CSK4-stimulated cells (RAW 264.7 macrophages [1]; PAM3CSK4 50 ng/ml): 50 to 200 µM

cleavage by MMP-12 (tryptophan cumulative release) (human MMP-12): cleaved by the MMP-12 | rate of cleavage by MMP-12 relative to the longer peptide (SEQ ID NO. 2) (human MMP-12): slightly faster rate
Compound: GWGPLGLARCG [SEQ ID NO. 1]: MMP-12 cleavable peptide, tryptophan modified, tethered to PEG hydrogel (also: tethered to PEG hydrogel)

cleavage by MMP-12 (tryptophan cumulative release) (human MMP-12): cleaved by the MMP-12
Compound: GWGPLGLEEACG [SEQ ID NO. 2]: MMP-12 cleavable peptide, tryptophan modified, tethered to PEG hydrogel (also: tethered to PEG hydrogel)

Compound: PAM3CSK4
increase in IL-6 production (RAW 264.7 macrophages [1]; PAM3CSK4 treatment vs unstimulated, no inhibitor, p<0.01): 3 -fold | MMP-12 levels compared to blank (no cells) (RAW 264.7 macrophages [2]; serum-containing medium (10% FBS)): not statistically different to the blank | MMP-12 secretion (RAW 264.7 macrophages [2]; serum-free (1% ITS) media, p<0.01 vs blank): 245 µg/mL
